{
  "source": "patent US20050112058A1",
  "about": "“Auger effect-based cancer therapy method” (Ben-Gurion University of the Negev, priority 2002, published 2005)",
  "key": {"B16 melanoma": {"test_system": "B16 melanoma", "details": "40 mg/kg intraperitoneal, samples up to 72 hours after injection, compared with TCA-insoluble fraction", "method": "Tissue samples were taken up to 72 hours after the injection. The samples were treated with trichloroacetic acid (TCA), such that the TCA-insoluble fraction contained the DNA and high molecular weight proteins, and the TCA-soluble fraction contained the cytoplasmic and membrane components of the cells. Inductively-coupled plasma mass spectrometry (ICP-MS) was used to measure the concentration of indium ions in the TCA-insoluble and TCA-soluble fractions."}, "DNA": {"test_system": "DNA", "details": "for Fluorescent Intensity: 7.5 μg DNA, 7.5 μl ethidium bromide buffer", "protocol": "A stock solution of 1.26 μM ethidium bromide containing 2 mM HEPES, 8 mM sodium chloride and 0.05 mM EDTA (pH=7) was prepared."}, "[1]": {"test_system": "KHJJ murine mammary carcinoma tumors", "assay": "Auger electron therapy: tumor volume after 103Pd brachytherapy seed implantation with or without PtTMPyP(4)", "type": "in vivo, BALB/C mice", "details": "for Tumor volume, mm^3 ± standard error, Auger Electron Therapy: 103 Pd seeds in combination with PtTMPyP(4): with 103Pd seeds", "protocol": "General description. On day 0, after measurements of the length, width and height of the tumors, palladium-103 brachytherapy seeds were implanted into 12 KHJJ murine mammary carcinoma tumors borne on the thighs of 12 BALB/C mice. Twenty-four hours after seed implantation, 40 mg/kg, platinum (II)-tetrakis(N-methyl-4-pyridyl) porphyrin [PtTMPyP(4)], in the form of its chloride salt, was administered i.p. as a single bolus injection of 200 μl to the six mice undergoing AET. Tumor volume measurements were obtained two to three times weekly. Drug was also administered on days 5 (30 mg/kg), and 19 (20 mg/kg) following seed implantation.\nTumor. Prior to the experiment, tumors were excised from the donor mouse in a sterile environment, and fragmented into 1-2 mm sections in a Petri dish. After anesthetizing each mouse with ketamine/xylazine (10:1), a small slit was prepared through the skin on the thigh, ˜5 mm above and lateral to the distal femur of the right knee. To assure subcutaneous implantation of the tumor fragment, a magnifying glass with a fluorescent light was used to observe the sheen on the fascia surrounding the three sides of the ‘pocket’ produced by the slit. An 18 gauge trochar, into whose bevel a tumor fragment had been inserted, was positioned into the ‘pocket’. A stylette was used to push the fragment into the ‘pocket’. Tumors were implanted either 12 or 15 days prior to the experiment. Upon verification of tumor growth, those tumors of adequate size to accommodate the seed implant, were randomized into treatment groups (AET or radiation only) using a coin flip.\nMeasurements of tumor volume. Using a digital caliper, the length, width, and height of the tumors were measured. Being ellipsoid in their growth pattern, tumor volume was determined according to the formula, […].\nSeed implantation. On day 0, after weighing the mice and measuring the length, width and height of the tumors, palladium-103 brachytherapy seeds (˜2.2 mCi in activity; Theragenics) were implanted into the thigh tumors as follows. The anesthetized mouse was positioned on a board whose angle was ˜45°. The tumor bearing leg was inserted through an elastic band, secured through the board. The foot was taped to the board. An 18 gauge trochar with a funnel head that was supported by a brace on a ring stand, was inserted into the center to the tumor. The seed, previously sterilized by dipping in ETOH, rinsing in a sterile PBS solution, and air-dried, was placed in the funnel of the trochar using long-nosed forceps. A stylette was used to insert the seed into the tumor, after which the trochar was withdrawn from the tumor and Neosporin was applied to the wound.\nDrug delivery. The day after seed implantation (day 1), 40 mg/kg of PtTMPyP(4), in the form of its chloride salt, was administered intraperitoneally to the mice in the AET treatment group. On day 5, […] of PtTMPyP(4) was injected i.p., and on day 19, a dosage of 20 mg/kg was injected i.p."}},
  "note": "Like-named read-outs stand apart in the source and are kept apart here.",
  "data": [
    {"compound": "C[n+]1ccc(-c2c3nc(c(-c4cc[n+](C)cc4)c4ccc([n-]4)c(-c4cc[n+](C)cc4)c4nc(c(-c5cc[n+](C)cc5)c5ccc2[n-]5)C=C4)C=C3)cc1.[In+3]", "note": "[In^3+-tetra(N-methyl-4-pyridyl)-porphyrin]", "values": [
      {"measurement": "number of indium ions per cell in the TCA-soluble fraction (cytoplasmic and membrane components)", "setting": "B16 melanoma", "value": "lesser amount"},
      {"measurement": "Fluorescent Intensity", "setting": "DNA; 0.25 μg complex", "value": 85, "unit": "%"},
      {"measurement": "Fluorescent Intensity", "setting": "DNA; 0.50 μg complex", "value": 73, "unit": "%"},
      {"measurement": "Fluorescent Intensity", "setting": "DNA; 0.75 μg complex", "value": 63, "unit": "%"},
      {"measurement": "Fluorescent Intensity", "setting": "DNA; 1.00 μg complex", "value": 54, "unit": "%"},
      {"measurement": "Fluorescent Intensity", "setting": "DNA; 1.25 μg complex", "value": 47, "unit": "%"},
      {"measurement": "Fluorescent Intensity", "setting": "DNA; 1.50 μg complex", "value": 41, "unit": "%"},
      {"measurement": "Fluorescent Intensity", "setting": "DNA; 1.75 μg complex", "value": 35, "unit": "%"},
      {"measurement": "Fluorescent Intensity", "setting": "DNA; 2.00 μg complex", "value": 30, "unit": "%"},
      {"measurement": "Fluorescent Intensity", "setting": "DNA; 2.25 μg complex", "value": 26, "unit": "%"},
      {"measurement": "Fluorescent Intensity", "setting": "DNA; 2.50 μg complex", "value": 22, "unit": "%"},
      {"measurement": "Fluorescent Intensity", "setting": "DNA; 2.75 μg complex", "value": 19, "unit": "%"},
      {"measurement": "Fluorescent Intensity", "setting": "DNA; 3.00 μg complex", "value": 16, "unit": "%"},
      {"measurement": "Fluorescent Intensity", "setting": "DNA; 3.25 μg complex", "value": 13.4, "unit": "%"},
      {"measurement": "Fluorescent Intensity", "setting": "DNA; 3.50 μg complex", "value": 12, "unit": "%"},
      {"measurement": "Fluorescent Intensity", "setting": "DNA; 3.75 μg complex", "value": 10, "unit": "%"},
      {"measurement": "Fluorescent Intensity", "setting": "DNA; 4.00 μg complex", "value": 9, "unit": "%"},
      {"measurement": "binding to DNA by displacement of ethidium bromide (in words)", "setting": "DNA; fluorescence decreases with increasing complex concentration, FIG. 2", "value": "displaces the ethidium bromide and becomes bound to the DNA"}
    ]},
    {"compound": "CN1C=CC(c2c3nc(c(C4=CCN(C)C=C4)c4ccc([nH]4)c(C4=CCN(C)C=C4)c4nc(c(C5=CCN(C)C=C5)c5ccc2[nH]5)C=C4)C=C3)=CC1.[Pt+2]", "note": "[PtTMPyP(4), platinum (II)-tetrakis(N-methyl-4-pyridyl) porphyrin]", "values": [
      {"measurement": "effect on tumor growth compared with radiation alone or no treatment (in words)", "setting": "[1]; AET group, FIG. 4, mean tumor volume", "value": "significant delay in tumor control"},
      {"measurement": "Tumor volume, mm^3 ± standard error, Auger Electron Therapy: 103 Pd seeds in combination with PtTMPyP(4)", "setting": "[1]; day 0 post seed implantation (before first drug dose)", "value": "117.5 ± 18.6", "unit": "mm^3"},
      {"measurement": "Tumor volume, mm^3 ± standard error, Auger Electron Therapy: 103 Pd seeds in combination with PtTMPyP(4)", "setting": "[1]; day 3 post seed implantation, i.p. 40 mg/kg day 1, 30 day 5, 20 day 19", "value": "112.8 ± 15.3", "unit": "mm^3"},
      {"measurement": "Tumor volume, mm^3 ± standard error, Auger Electron Therapy: 103 Pd seeds in combination with PtTMPyP(4)", "setting": "[1]; day 5 post seed implantation, i.p. 40 mg/kg day 1, 30 day 5, 20 day 19", "value": "110.6 ± 25.7", "unit": "mm^3"},
      {"measurement": "Tumor volume, mm^3 ± standard error, Auger Electron Therapy: 103 Pd seeds in combination with PtTMPyP(4)", "setting": "[1]; day 7 post seed implantation, i.p. 40 mg/kg day 1, 30 day 5, 20 day 19", "value": "121.5 ± 29.4", "unit": "mm^3"},
      {"measurement": "Tumor volume, mm^3 ± standard error, Auger Electron Therapy: 103 Pd seeds in combination with PtTMPyP(4)", "setting": "[1]; day 9 post seed implantation, i.p. 40 mg/kg day 1, 30 day 5, 20 day 19", "value": "123.1 ± 26.9", "unit": "mm^3"},
      {"measurement": "Tumor volume, mm^3 ± standard error, Auger Electron Therapy: 103 Pd seeds in combination with PtTMPyP(4)", "setting": "[1]; day 12 post seed implantation, i.p. 40 mg/kg day 1, 30 day 5, 20 day 19", "value": "150.7 ± 31.5", "unit": "mm^3"},
      {"measurement": "Tumor volume, mm^3 ± standard error, Auger Electron Therapy: 103 Pd seeds in combination with PtTMPyP(4)", "setting": "[1]; day 15 post seed implantation, i.p. 40 mg/kg day 1, 30 day 5, 20 day 19", "value": "116.5 ± 44.9", "unit": "mm^3"},
      {"measurement": "Tumor volume, mm^3 ± standard error, Auger Electron Therapy: 103 Pd seeds in combination with PtTMPyP(4)", "setting": "[1]; day 19 post seed implantation, i.p. 40 mg/kg day 1, 30 day 5, 20 day 19", "value": "175.6 ± 69.2", "unit": "mm^3"},
      {"measurement": "Tumor volume, mm^3 ± standard error, Auger Electron Therapy: 103 Pd seeds in combination with PtTMPyP(4)", "setting": "[1]; day 21 post seed implantation, i.p. 40 mg/kg day 1, 30 day 5, 20 day 19", "value": "200.1 ± 81.9", "unit": "mm^3"},
      {"measurement": "Tumor volume, mm^3 ± standard error, Auger Electron Therapy: 103 Pd seeds in combination with PtTMPyP(4)", "setting": "[1]; day 23 post seed implantation, i.p. 40 mg/kg day 1, 30 day 5, 20 day 19", "value": "232.6 ± 91.2", "unit": "mm^3"},
      {"measurement": "Tumor volume, mm^3 ± standard error, Auger Electron Therapy: 103 Pd seeds in combination with PtTMPyP(4)", "setting": "[1]; day 27 post seed implantation, i.p. 40 mg/kg day 1, 30 day 5, 20 day 19", "value": "280.2 ± 90.6", "unit": "mm^3"},
      {"measurement": "factor between mean tumor volume with seeds only and with seeds plus drug", "setting": "[1]; day 32, 103Pd seeds alone versus 103Pd seeds plus PtTMPyP(4)", "value": 5},
      {"measurement": "Tumor volume, mm^3 ± standard error, Auger Electron Therapy: 103 Pd seeds in combination with PtTMPyP(4)", "setting": "[1]; day 32 post seed implantation, i.p. 40 mg/kg day 1, 30 day 5, 20 day 19, 40 mg/kg", "value": "356.2 ± 133.9", "unit": "mm^3"}
    ]}
  ]
}
